For `CNC(=O)c1ccc([C@@H]2C[C@H]3C=C(c4c[nH]c(-c5ccc(F)cc5)c4-c4ccncc4)CCN3C2)cc1` [Example 53, 2-(4-Fluorophenyl)-4-[(2S,8aS)-2-[4-(N-methylcarbamoyl)phenyl]-1,2,3,5,6,8a-hexahydroindolizin-7-yl]-3-(pyridin-4-yl)-1H-pyrrole], the melting point was in the range of 171 to 173 °C. Under `CCNC(=O)c1ccc([C@@H]2C[C@H]3C=C(c4c[nH]c(-c5ccc(F)cc5)c4-c4ccncc4)CCN3C2)cc1` [Example 54, 4-[(2S,8aS)-2-[4-(N-Ethylcarbamoyl)phenyl]-1,2,3,5,6,8a-hexahydroindolizin-7-yl]-2-(4-fluorophenyl)-3-(pyridin-4-yl)-1H-pyrrole] stands 178 to 180 °C. The same measure for `O=C(NCc1ccccc1)c1ccc([C@@H]2C[C@H]3C=C(c4c[nH]c(-c5ccc(F)cc5)c4-c4ccncc4)CCN3C2)cc1` [Example 55, 4-[(2S,8aS)-2-[4-(N-Benzylcarbamoyl)phenyl]-1,2,3,5,6,8a-hexahydroindolizin-7-yl]-2-(4-fluorophenyl)-3-(pyridin-4-yl)-1H-pyrrole]: 173 to 175 °C; for `O=C(NC1CC1)c1ccc([C@@H]2C[C@H]3C=C(c4c[nH]c(-c5ccc(F)cc5)c4-c4ccncc4)CCN3C2)cc1` [Example 56, 4-[(2S,8aS)-2-[4-(N-Cyclopropylcarbamoyl)phenyl]-1,2,3,5,6,8a-hexahydroindolizin-7-yl]-2-(4-fluorophenyl)-3-(pyridin-4-yl)-1H-pyrrole]: 200 to 202 °C; for `O=C(NCCF)c1ccc([C@@H]2C[C@H]3C=C(c4c[nH]c(-c5ccc(F)cc5)c4-c4ccncc4)CCN3C2)cc1` [Example 57, 4-[(2S,8aS)-2-[4-[N-(2-Fluoroethyl)carbamoyl]phenyl]-1,2,3,5,6,8a-hexahydroindolizin-7-yl]-2-(4-fluorophenyl)-3-(pyridin-4-yl)-1H-pyrrole]: 183 to 185 °C. Under `CCCNC(=O)c1ccc([C@@H]2C[C@H]3C=C(c4c[nH]c(-c5ccc(F)cc5)c4-c4ccncc4)CCN3C2)cc1` [Example 58, 2-(4-Fluorophenyl)-4-[(2S,8aS)-2-[4-(N-propylcarbamoyl)phenyl]-1,2,3,5,6,8a-hexahydroindolizin-7-yl]-3-(pyridin-4-yl)-1H-pyrrole] stands 190 to 192 °C.

In turn, `CC(C)NC(=O)c1ccc([C@@H]2C[C@H]3C=C(c4c[nH]c(-c5ccc(F)cc5)c4-c4ccncc4)CCN3C2)cc1` [Example 59, 2-(4-Fluorophenyl)-4-[(2S,8aS)-2-[4-(N-isopropylcarbamoyl)phenyl]-1,2,3,5,6,8a-hexahydroindolizin-7-yl]-3-(pyridin-4-yl)-1H-pyrrole] gave a melting point of 202 to 204 °C. Under `COCCNC(=O)c1ccc([C@@H]2C[C@H]3C=C(c4c[nH]c(-c5ccc(F)cc5)c4-c4ccncc4)CCN3C2)cc1` [Example 61, 2-(4-Fluorophenyl)-4-[(2S,8aS)-2-[4-(N-(2-methoxyethyl)carbamoyl)phenyl]-1,2,3,5,6,8a-hexahydroindolizin-7-yl]-3-(pyridin-4-yl)-1H-pyrrole] stands 166 to 168 °C.
